Data taken from ChEMBL document CHEMBL1649268, “Comparative in vitro activity profile of oritavancin against recent gram-positive clinical isolates” (2009).
≈ marks a conversion by molar mass, not a printed value.

Experiments:
Type in all cases: functional
Enterococcus faecalis [1] = experiment: Antimicrobial activity against Enterococcus faecalis expressing VanA gene clinical isolates by broth microdilution method
Enterococcus faecalis [2] = experiment: Antimicrobial activity against vancomycin-nonsusceptible Enterococcus faecalis clinical isolates assessed as percent susceptible isolates by broth microdilution method
Enterococcus faecium [3] = experiment: Antimicrobial activity against vancomycin-nonsusceptible Enterococcus faecium clinical isolates by broth microdilution method
Enterococcus faecalis [4] = experiment: Antimicrobial activity against vancomycin-susceptible Enterococcus faecalis clinical isolates assessed as resistant isolates by broth microdilution method
Enterococcus faecalis [5] = experiment: Antimicrobial activity against Enterococcus faecalis expressing VanA gene clinical isolates assessed as percent susceptible isolates by broth microdilution method
Enterococcus faecium [6] = experiment: Antimicrobial activity against vancomycin-nonsusceptible Enterococcus faecium clinical isolates assessed as percent susceptible isolates by broth microdilution method
Enterococcus faecium [7] = experiment: Antimicrobial activity against Enterococcus faecium expressing VanA gene clinical isolates assessed as percent susceptible isolates by broth microdilution method
Enterococcus faecium [8] = experiment: Antimicrobial activity against Enterococcus faecium clinical isolates assessed as percent susceptible isolates by broth microdilution method
Enterococcus faecalis [9] = experiment: Antimicrobial activity against Enterococcus faecalis clinical isolates by broth microdilution method
Enterococcus faecalis [10] = experiment: Antimicrobial activity against Enterococcus faecalis expressing VanB gene clinical isolates by broth microdilution method
Enterococcus faecium [11] = experiment: Antimicrobial activity against vancomycin-susceptible Enterococcus faecium clinical isolates by broth microdilution method
Enterococcus faecalis [12] = experiment: Antimicrobial activity against Enterococcus faecalis expressing VanB gene clinical isolates assessed as resistant isolates by broth microdilution method
Enterococcus faecium [13] = experiment: Antimicrobial activity against Enterococcus faecium expressing VanB gene clinical isolates assessed as resistant isolates by broth microdilution method
Enterococcus faecium [14] = experiment: Antimicrobial activity against Enterococcus faecium clinical isolates by broth microdilution method
Enterococcus faecium [15] = experiment: Antimicrobial activity against Enterococcus faecium expressing VanA gene clinical isolates by broth microdilution method
Enterococcus faecium [16] = experiment: Antimicrobial activity against vancomycin-nonsusceptible Enterococcus faecium clinical isolates assessed as resistant isolates by broth microdilution method
Enterococcus faecalis [17] = experiment: Antimicrobial activity against vancomycin-susceptible Enterococcus faecalis clinical isolates by broth microdilution method
Enterococcus faecium [18] = experiment: Antimicrobial activity against vancomycin-susceptible Enterococcus faecium clinical isolates assessed as resistant isolates by broth microdilution method
Enterococcus faecalis [19] = experiment: Antimicrobial activity against Enterococcus faecalis expressing VanB gene clinical isolates assessed as percent susceptible isolates by broth microdilution method
Enterococcus faecalis [20] = experiment: Antimicrobial activity against vancomycin-nonsusceptible Enterococcus faecalis clinical isolates assessed as resistant isolates by broth microdilution method
Enterococcus faecalis [21] = experiment: Antimicrobial activity against vancomycin-susceptible Enterococcus faecalis clinical isolates assessed as percent susceptible isolates by broth microdilution method
Enterococcus faecalis [22] = experiment: Antimicrobial activity against Enterococcus faecalis clinical isolates assessed as resistant isolates by broth microdilution method
Enterococcus faecalis [23] = experiment: Antimicrobial activity against vancomycin-nonsusceptible Enterococcus faecalis clinical isolates by broth microdilution method
Enterococcus faecium [24] = experiment: Antimicrobial activity against Enterococcus faecium expressing VanB gene clinical isolates by broth microdilution method
Enterococcus faecalis [25] = experiment: Antimicrobial activity against Enterococcus faecalis expressing VanA gene clinical isolates assessed as resistant isolates by broth microdilution method
Enterococcus faecalis [26] = experiment: Antimicrobial activity against Enterococcus faecalis clinical isolates assessed as percent susceptible isolates by broth microdilution method
Enterococcus faecium [27] = experiment: Antimicrobial activity against Enterococcus faecium expressing VanA gene clinical isolates assessed as resistant isolates by broth microdilution method
Enterococcus faecium [28] = experiment: Antimicrobial activity against Enterococcus faecium clinical isolates assessed as resistant isolates by broth microdilution method
Enterococcus faecium [29] = experiment: Antimicrobial activity against Enterococcus faecium expressing VanB gene clinical isolates assessed as percent susceptible isolates by broth microdilution method
Enterococcus faecium [30] = experiment: Antimicrobial activity against vancomycin-susceptible Enterococcus faecium clinical isolates assessed as percent susceptible isolates by broth microdilution method
Streptococcus pneumoniae [31] = experiment: Antimicrobial activity against penicillin-resistant Streptococcus pneumoniae clinical isolates assessed as percent susceptible isolates by broth microdilution method
Streptococcus pneumoniae [32] = experiment: Antimicrobial activity against penicillin-resistant Streptococcus pneumoniae clinical isolates by broth microdilution method
Streptococcus pneumoniae [33] = experiment: Antimicrobial activity against penicillin-susceptible Streptococcus pneumoniae clinical isolates assessed as resistant isolates by broth microdilution method
Streptococcus pneumoniae [34] = experiment: Antimicrobial activity against Streptococcus pneumoniae clinical isolates assessed as percent susceptible isolates by broth microdilution method
Streptococcus pneumoniae [35] = experiment: Antimicrobial activity against Streptococcus pneumoniae clinical isolates by broth microdilution method
Streptococcus pneumoniae [36] = experiment: Antimicrobial activity against penicillin-intermediate Streptococcus pneumoniae clinical isolates assessed as percent susceptible isolates by broth microdilution method
Streptococcus pneumoniae [37] = experiment: Antimicrobial activity against Streptococcus pneumoniae clinical isolates assessed as resistant isolates by broth microdilution method
Streptococcus pneumoniae [38] = experiment: Antimicrobial activity against penicillin-susceptible Streptococcus pneumoniae clinical isolates assessed as percent susceptible isolates by broth microdilution method
Streptococcus pneumoniae [39] = experiment: Antimicrobial activity against penicillin-susceptible Streptococcus pneumoniae clinical isolates by broth microdilution method
Streptococcus pneumoniae [40] = experiment: Antimicrobial activity against penicillin-intermediate Streptococcus pneumoniae clinical isolates by broth microdilution method
Streptococcus pneumoniae [41] = experiment: Antimicrobial activity against penicillin-resistant Streptococcus pneumoniae clinical isolates assessed as resistant isolates by broth microdilution method
Streptococcus pneumoniae [42] = experiment: Antimicrobial activity against penicillin-intermediate Streptococcus pneumoniae clinical isolates assessed as resistant isolates by broth microdilution method
[43] = test system: Staphylococcus epidermidis; experiment: Antimicrobial activity against oxacillin-resistant Staphylococcus epidermidis clinical isolates by broth microdilution method
[44] = test system: Staphylococcus haemolyticus; experiment: Antimicrobial activity against Staphylococcus haemolyticus clinical isolates by broth microdilution method
[45] = test system: Staphylococcus haemolyticus; experiment: Antimicrobial activity against Staphylococcus haemolyticus clinical isolates assessed as percent susceptible isolates by broth microdilution method
Staphylococcus aureus [46] = experiment: Antimicrobial activity against oxacillin-susceptible Staphylococcus aureus clinical isolates by broth microdilution method
[47] = test system: Staphylococcus haemolyticus; experiment: Antimicrobial activity against oxacillin-resistant Staphylococcus haemolyticus clinical isolates by broth microdilution method
[48] = test system: Staphylococcus epidermidis; experiment: Antimicrobial activity against Staphylococcus epidermidis clinical isolates by broth microdilution method
Staphylococcus aureus [49] = experiment: Antimicrobial activity against oxacillin-susceptible Staphylococcus aureus clinical isolates assessed as percent susceptible isolates by broth microdilution method
Staphylococcus aureus [50] = experiment: Antimicrobial activity against oxacillin-resistant Staphylococcus aureus clinical isolates by broth microdilution method
[51] = test system: Staphylococcus haemolyticus; experiment: Antimicrobial activity against oxacillin-resistant Staphylococcus haemolyticus clinical isolates assessed as percent susceptible isolates by broth microdilution method
[52] = test system: Staphylococcus epidermidis; experiment: Antimicrobial activity against oxacillin-susceptible Staphylococcus epidermidis clinical isolates assessed as percent susceptible isolates by broth microdilution method
[53] = test system: Staphylococcus epidermidis; experiment: Antimicrobial activity against Staphylococcus epidermidis clinical isolates assessed as percent susceptible isolates by broth microdilution method
Staphylococcus aureus [54] = experiment: Antimicrobial activity against Staphylococcus aureus clinical isolates by broth microdilution method
[55] = test system: Staphylococcus epidermidis; experiment: Antimicrobial activity against oxacillin-susceptible Staphylococcus epidermidis clinical isolates by broth microdilution method
Staphylococcus aureus [56] = experiment: Antimicrobial activity against Staphylococcus aureus clinical isolates assessed as percent susceptible isolates by broth microdilution method
[57] = test system: Staphylococcus haemolyticus; experiment: Antimicrobial activity against oxacillin-susceptible Staphylococcus haemolyticus clinical isolates assessed as percent susceptible isolates by broth microdilution method
[58] = test system: Staphylococcus haemolyticus; experiment: Antimicrobial activity against oxacillin-susceptible Staphylococcus haemolyticus clinical isolates by broth microdilution method

CN[C@@H]1[C@H](O[C@H]2[C@H](O[C@H]3[C@H](O)[C@@H](O)[C@H](N=C(N)N)[C@@H](O)[C@@H]3N=C(N)N)O[C@@H](C)[C@]2(O)C=O)O[C@@H](CO)[C@H](O)[C@H]1O [STREPTOMYCIN]
MIC (Enterococcus faecalis [1]): ≥ 1000 µg/mL
MIC90 (Enterococcus faecalis [1]): > 1000 µg/mL
Activity (Enterococcus faecalis [2]): 48.3%
MIC (Enterococcus faecium [3]): ≥ 1000 µg/mL
MIC90 (Enterococcus faecium [3]): > 1000 µg/mL
Activity (Enterococcus faecalis [4]): 28.7%
Activity (Enterococcus faecalis [5]): 49.2%
Activity (Enterococcus faecium [6]): 36.5%
Activity (Enterococcus faecium [7]): 36.1%
Activity (Enterococcus faecium [8]): 44.8%
MIC (Enterococcus faecalis [9]): ≥ 1000 µg/mL
MIC90 (Enterococcus faecalis [9]): > 1000 µg/mL
MIC (Enterococcus faecalis [10]): ≥ 1000 µg/mL
MIC90 (Enterococcus faecalis [10]): > 1000 µg/mL
MIC (Enterococcus faecium [11]): ≥ 1000 µg/mL
MIC90 (Enterococcus faecium [11]): > 1000 µg/mL
Activity (Enterococcus faecalis [12]): 58.8%
Activity (Enterococcus faecium [13]): 65.5%
MIC (Enterococcus faecium [14]): ≥ 1000 µg/mL
MIC90 (Enterococcus faecium [14]): > 1000 µg/mL
MIC (Enterococcus faecium [15]): ≥ 1000 µg/mL
MIC90 (Enterococcus faecium [15]): > 1000 µg/mL
Activity (Enterococcus faecium [16]): 63.5%
MIC (Enterococcus faecalis [17]): ≥ 1000 µg/mL
MIC90 (Enterococcus faecalis [17]): > 1000 µg/mL
Activity (Enterococcus faecium [18]): 44%
Activity (Enterococcus faecalis [19]): 41.2%
Activity (Enterococcus faecalis [20]): 51.7%
Activity (Enterococcus faecalis [21]): 71.3%
Activity (Enterococcus faecalis [22]): 29.9%
MIC (Enterococcus faecalis [23]): ≥ 1000 µg/mL
MIC90 (Enterococcus faecalis [23]): > 1000 µg/mL
MIC (Enterococcus faecium [24]): ≥ 1000 µg/mL
MIC90 (Enterococcus faecium [24]): > 1000 µg/mL
Activity (Enterococcus faecalis [25]): 50.8%
Activity (Enterococcus faecalis [26]): 70.1%
Activity (Enterococcus faecium [27]): 63.9%
Activity (Enterococcus faecium [28]): 55.2%
Activity (Enterococcus faecium [29]): 34.5%
Activity (Enterococcus faecium [30]): 56%

CO/N=C(\C(=O)N[C@@H]1C(=O)N2C(C(=O)O)=C(CSc3nc(=O)c(O)nn3C)CS[C@H]12)c1csc(N)n1 [CEFTRIAXONE]
Activity (Streptococcus pneumoniae [31]): 80.4%
MIC90 (Streptococcus pneumoniae [32]): 2 µg/mL (≈ 3.61 µM)
Percent of isolates resistant (Streptococcus pneumoniae [33]): 0%
Activity (Streptococcus pneumoniae [34]): 97%
MIC90 (Streptococcus pneumoniae [35]): 1 µg/mL (≈ 1.8 µM)
Activity (Streptococcus pneumoniae [36]): 99.5%
Resistant isolates (Streptococcus pneumoniae [37]): 1.2%
Activity (Streptococcus pneumoniae [38]): 100%
MIC90 (Streptococcus pneumoniae [39]): 0.03 µg/mL (≈ 0.0541 µM)
MIC90 (Streptococcus pneumoniae [40]): 0.5 µg/mL (≈ 0.902 µM)
Percent of isolates resistant (Streptococcus pneumoniae [41]): 7.4%
Percent of isolates resistant (Streptococcus pneumoniae [42]): 0.5%

CC[C@H]1OC(=O)[C@H](C)C(=O)[C@H](C)[C@@H](O[C@@H]2O[C@H](C)C[C@H](N(C)C)[C@H]2O)[C@](C)(OC)C[C@@H](C)C(=O)[C@H](C)[C@H]2N(CCCCn3cnc(-c4cccnc4)c3)C(=O)O[C@]12C [TELITHROMYCIN]
MIC90 (Streptococcus pneumoniae [32]): 0.5 µg/mL (≈ 0.616 µM)
Percent of isolates resistant (Streptococcus pneumoniae [33]): 0%
Activity (Streptococcus pneumoniae [34]): 100%
MIC90 (Streptococcus pneumoniae [35]): 0.25 µg/mL (≈ 0.308 µM)
Activity (Streptococcus pneumoniae [36]): 100%
Resistant isolates (Streptococcus pneumoniae [37]): 0%
Activity (Streptococcus pneumoniae [38]): 100%
MIC90 (Streptococcus pneumoniae [39]): 0.015 µg/mL (≈ 0.0185 µM)
MIC90 (Streptococcus pneumoniae [40]): 0.25 µg/mL (≈ 0.308 µM)
Percent of isolates resistant (Streptococcus pneumoniae [41]): 0%
Percent of isolates resistant (Streptococcus pneumoniae [42]): 0%

CC(=O)NC[C@H]1CN(c2ccc(N3CCOCC3)c(F)c2)C(=O)O1 [LINEZOLID]
MIC90 (Enterococcus faecalis [1]): 2 µg/mL (≈ 5.93 µM)
MIC90 [43]: 1 µg/mL (≈ 2.96 µM)
Activity (Enterococcus faecalis [2]): 98.9%
MIC90 [44]: 1 µg/mL (≈ 2.96 µM)
MIC90 (Enterococcus faecium [3]): 2 µg/mL (≈ 5.93 µM)
Activity (Enterococcus faecalis [4]): 0.1%
Activity (Enterococcus faecalis [5]): 98.5%
Activity (Enterococcus faecium [6]): 99.1%
Activity (Enterococcus faecium [7]): 99.5%
Activity [45]: 99.3%
MIC90 (Staphylococcus aureus [46]): 2 µg/mL (≈ 5.93 µM)
Activity (Enterococcus faecium [8]): 99.3%
MIC90 (Enterococcus faecalis [9]): 2 µg/mL (≈ 5.93 µM)
MIC90 (Enterococcus faecalis [10]): 2 µg/mL (≈ 5.93 µM)
MIC90 [47]: 1 µg/mL (≈ 2.96 µM)
MIC90 (Enterococcus faecium [11]): 2 µg/mL (≈ 5.93 µM)
MIC90 [48]: 1 µg/mL (≈ 2.96 µM)
Activity (Enterococcus faecalis [12]): 0%
Activity (Enterococcus faecium [13]): 3.4%
MIC90 (Enterococcus faecium [14]): 2 µg/mL (≈ 5.93 µM)
Activity (Staphylococcus aureus [49]): 100%
MIC90 (Enterococcus faecium [15]): 2 µg/mL (≈ 5.93 µM)
MIC90 (Staphylococcus aureus [50]): 2 µg/mL (≈ 5.93 µM)
Activity (Enterococcus faecium [16]): 0.6%
MIC90 (Enterococcus faecalis [17]): 2 µg/mL (≈ 5.93 µM)
Activity (Enterococcus faecium [18]): 0%
Activity (Enterococcus faecalis [19]): 100%
Activity [51]: 99%
Activity [52]: 99.7%
Activity [53]: 99.4%
Activity (Enterococcus faecalis [20]): 1.1%
Activity (Enterococcus faecalis [21]): 99.9%
Activity (Enterococcus faecalis [22]): 0.2%
MIC90 (Enterococcus faecalis [23]): 2 µg/mL (≈ 5.93 µM)
MIC90 (Staphylococcus aureus [54]): 2 µg/mL (≈ 5.93 µM)
MIC90 (Enterococcus faecium [24]): 2 µg/mL (≈ 5.93 µM)
Activity (Enterococcus faecalis [25]): 1.5%
Activity (Enterococcus faecalis [26]): 99.8%
Activity (Enterococcus faecium [27]): 0.5%
MIC90 [55]: 1 µg/mL (≈ 2.96 µM)
Activity (Enterococcus faecium [28]): 0.4%
Activity (Staphylococcus aureus [56]): 100%
Activity [57]: 100%
MIC90 [58]: 1 µg/mL (≈ 2.96 µM)
Activity (Enterococcus faecium [29]): 93.1%
Activity (Enterococcus faecium [30]): 99.4%
